The supplement of paper PMC7840683
Structures can show the parent of a compound that is named as a salt.

Tested on: HepaRG
Test: LDH release cytotoxicity, % of total lysis control; higher = more cytotoxic
Settings: 48 h
Method in brief: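 Single-lot HepaRG cells in collagen I-coated 96-well plates were treated for 48 h in serum-free induction medium containing 0.5% DMSO with test chemicals in eight-point half-log series up to 100 µM. For total lysis, wells received 0.1% Triton X. LDH in 50 µL spent medium was assayed by resorufin fluorescence with CytoTox-ONE. Percent cytotoxicity was normalized to the on-plate vehicle and total lysis controls, with duplicates averaged.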

C=C(C)C1Cc2c(ccc3c2OC2COc4cc(OC)c(OC)cc4C2C3=O)O1 (centres undefined) [Rotenone]
Settings	LDH release cytotoxicity [%]
0.03162 µM	-3.41
0.1 µM	-3.52
0.3162278 µM	-4.58
1 µM	4.61
3.16228 µM	19.6
10 µM	48.4
31.6228 µM	71.8
100 µM	72.3

CCCCN(CC)c1c([N+](=O)[O-])cc(C(F)(F)F)cc1[N+](=O)[O-] [Benfluralin]
Settings	LDH release cytotoxicity [%]
0.031623 µM	-0.0474
0.1 µM	-1.73
0.316228 µM	-1.78
1 µM	-2.54
3.16228 µM	-2.56
10 µM	-1.12
31.6228 µM	-1.14
100 µM	-0.374

CCC(C)(C)c1ccc(O)cc1 [4-(2-Methylbutan-2-yl)phenol]
Settings	LDH release cytotoxicity [%]
0.03162 µM	-0.822
0.1 µM	-1.57
0.3162278 µM	-1.05
1 µM	-1.22
3.16228 µM	-1.65
10 µM	-0.249
31.6228 µM	-1.75
100 µM	0.707

CCOP(=S)(OCC)SCSC(C)(C)C [Terbufos]
Settings	LDH release cytotoxicity [%]
0.03162 µM	-1.37
0.1 µM	-0.712
0.3162278 µM	-1.15
1 µM	-1.03
3.16228 µM	-0.647
10 µM	-0.0424
31.6228 µM	-0.0818
100 µM	1.12

COP(=S)(OC)SCn1nnc2ccccc2c1=O [Azinphos-methyl]
Settings	LDH release cytotoxicity [%]
0.03162 µM	-0.213
0.1 µM	-0.757
0.3162278 µM	-1.67
1 µM	-2.01
3.16228 µM	-0.975
10 µM	0.0858
31.6228 µM	-0.844
100 µM	0.533

CCCCCCCCCCCC[N+](C)(C)C [Dodecyltrimethylammonium chloride]
Settings	LDH release cytotoxicity [%]
0.03162 µM	-1.4
0.1 µM	-0.753
0.3162278 µM	-1.39
1 µM	-1.32
3.16228 µM	-1.23
10 µM	-0.28
31.6228 µM	0.602
100 µM	78

CC(C)(C)C(O)C(=Cc1ccc(Cl)cc1Cl)n1cncn1 (centres undefined) [Diniconazole]
Settings	LDH release cytotoxicity [%]
0.03162 µM	-0.57
0.1 µM	-1.77
0.3162278 µM	-0.96
1 µM	-0.38
3.16228 µM	0.433
10 µM	-0.346
31.6228 µM	0.723
100 µM	1.41

CC(C)c1ccc(C(=O)N=C(N)N)cc1S(C)(=O)=O [Cariporide mesylate]
Settings	LDH release cytotoxicity [%]
0.02356 µM	-0.0357
0.0745 µM	-1.69
0.23559 µM	-0.975
0.745 µM	-1.41
2.3559 µM	-0.944
7.45 µM	-0.838
23.559 µM	-1.46
74.5 µM	-0.256

COS(C)(=O)=O [Methyl methanesulfonate]
Settings	LDH release cytotoxicity [%]
0.03162 µM	-1.45
0.1 µM	-1.11
0.3162278 µM	-1.7
1 µM	-0.993
3.16228 µM	-1.33
10 µM	-1.07
31.6228 µM	-1.15
100 µM	0.825

C=CCOC(=O)c1ccccc1C(=O)OCC=C [Diallyl phthalate]
Settings	LDH release cytotoxicity [%]
0.03162 µM	0.139
0.1 µM	0.0319
0.3162278 µM	-0.423
1 µM	-0.76
3.16228 µM	-0.551
10 µM	0.184
31.6228 µM	-0.538
100 µM	0.377

CC1=NC(=S)NC(=O)C1 [6-Methyl-2-thiouracil]
Settings	LDH release cytotoxicity [%]
0.03162 µM	-1.61
0.1 µM	-0.548
0.3162278 µM	0.567
1 µM	0.268
3.16228 µM	0.0334
10 µM	0.892
31.6228 µM	0.733
100 µM	0.731

CC1(C)NC(=O)NC1=O [5,5-Dimethylhydantoin]
Settings	LDH release cytotoxicity [%]
0.03162 µM	-2.18
0.1 µM	-2.28
0.3162278 µM	-2.14
1 µM	-3.5
3.16228 µM	-1.38
10 µM	-1.82
31.6228 µM	-1.07
100 µM	1.93

c1ccc(-c2ccccc2)cc1 [Biphenyl]
Settings	LDH release cytotoxicity [%]
0.03162 µM	-3.64
0.1 µM	-2.69
0.3162278 µM	-2.88
1 µM	-2.22
3.16228 µM	-2.07
10 µM	-1.35
31.6228 µM	-1.49
100 µM	0.572

NS(=O)(=O)c1cc2c(cc1Cl)NCNS2(=O)=O [Hydrochlorothiazide]
Settings	LDH release cytotoxicity [%]
0.03162 µM	-0.499
0.1 µM	-1.26
0.3162278 µM	-1.458
1 µM	-1.51
3.16228 µM	-1.15
10 µM	-0.679
31.6228 µM	-1.51
100 µM	-0.146

NC(=O)N1C(=O)C(C(=O)c2cc(Cl)cs2)c2cc(F)c(Cl)cc21 (centres undefined)
Settings	LDH release cytotoxicity [%]
0.03162 µM	-0.6756
0.1 µM	-0.635
0.3162278 µM	-0.381
1 µM	-0.761
3.16228 µM	-0.334
10 µM	1.12
31.6228 µM	64.6
100 µM	50.6

C[C@](N)(Cc1ccc(O)c(O)c1)C(=O)O [Methyldopa sesquihydrate]
Settings	LDH release cytotoxicity [%]
0.03162 µM	-0.769
0.1 µM	-1.62
0.3162278 µM	-0.864
1 µM	-1.87
3.16228 µM	-1.57
10 µM	-0.513
31.6228 µM	-2.01
100 µM	-2.91

C=CC(=O)NCNC(=O)C=C [N,N'-Methylenebisacrylamide]
Settings	LDH release cytotoxicity [%]
0.03162 µM	-0.744
0.1 µM	-0.797
0.3162278 µM	-0.644
1 µM	-1.4
3.16228 µM	-0.3
10 µM	-0.328
31.6228 µM	-0.405
100 µM	1.88

CCC(C)N=O (centres undefined) [2-Butanone oxime]
Settings	LDH release cytotoxicity [%]
0.02261 µM	0.0542
0.0715 µM	-0.457
0.2261029 µM	-1.06
0.715 µM	-1.57
2.26103 µM	-1.04
7.15 µM	-1.22
22.6103 µM	-1.08
71.5 µM	0.052

Cc1ccc(N)c(N)c1 [3,4-Diaminotoluene]
Settings	LDH release cytotoxicity [%]
0.0317809 µM	-0.96
0.1005 µM	-0.403
0.317809 µM	-1.27
1.005 µM	-0.97
3.17809 µM	-0.641
10.05 µM	-0.448
31.7809 µM	-0.415
100.5 µM	0.704

COC(=O)C=C(C)OP(=O)(OC)OC [Mevinphos]
Settings	LDH release cytotoxicity [%]
0.03162 µM	-1.49
0.1 µM	-1.28
0.3162278 µM	-0.769
1 µM	-2.52
3.16228 µM	-2.16
10 µM	-0.179
31.6228 µM	-1.3
100 µM	1.1

CCC(=O)C(CC(C)N(C)C)(c1ccccc1)c1ccccc1 (centres undefined) [Methadone hydrochloride]
Settings	LDH release cytotoxicity [%]
0.0229265 µM	-1.18
0.0725 µM	-0.8
0.2292651 µM	-1.01
0.725 µM	-1.59
2.29265 µM	-0.919
7.25 µM	-0.638
22.926513 µM	0.191
72.5 µM	7.87

O=C(CCCN1CCC(O)(c2ccc(Cl)cc2)CC1)c1ccc(F)cc1 [Haloperidol]
Settings	LDH release cytotoxicity [%]
0.03162 µM	-1.32
0.1 µM	-2.17
0.3162278 µM	-1.58
1 µM	-1.63
3.16228 µM	-2.03
10 µM	-1.44
31.6228 µM	4.34
100 µM	62.2

Cc1ncc(C(CCCCCCc2ccc3c(n2)NCCC3)CC(=O)O)cn1 (centres undefined)
Settings	LDH release cytotoxicity [%]
0.03162 µM	-1.55
0.1 µM	-1.82
0.3162278 µM	-1.74
1 µM	-2.04
3.16228 µM	-1.49
10 µM	-1.25
31.6228 µM	-1.33
100 µM	0.986

C1CC2OC2CC1C1CO1 (centres undefined) [4-Vinyl-1-cyclohexene dioxide]
Settings	LDH release cytotoxicity [%]
0.03162 µM	-0.357
0.1 µM	-1.96
0.3162278 µM	-2.19
1 µM	-1.67
3.16228 µM	-1.29
10 µM	-1.43
31.6228 µM	-0.613
100 µM	78.1

CN(C)CCCN1c2ccccc2Sc2ccc(Cl)cc21 [Chlorpromazine hydrochloride]
Settings	LDH release cytotoxicity [%]
0.031623 µM	-1.42
0.1 µM	-1.97
0.316228 µM	-1.98
1 µM	-2.9
3.16228 µM	-1.62
10 µM	-1.31
31.6228 µM	10.7
100 µM	77.6

O=C1c2ccccc2C(=O)N1SC(Cl)(Cl)Cl [Folpet]
Settings	LDH release cytotoxicity [%]
0.031623 µM	0.571
0.1 µM	-2.6
0.316228 µM	-1.27
1 µM	-1.65
3.16228 µM	-1.73
10 µM	-1.49
31.6228 µM	-0.653
100 µM	-0.43

CC12CC1(C)C(=O)N(c1cc(Cl)cc(Cl)c1)C2=O (centres undefined) [Procymidone]
Settings	LDH release cytotoxicity [%]
0.03162 µM	-1.37
0.1 µM	-1.85
0.3162278 µM	-2.08
1 µM	-2.56
3.16228 µM	-2.762
10 µM	-1.32
31.6228 µM	-2.43
100 µM	-1.16

CC1(C)C(=O)NC(=O)N1CO [1-(Hydroxymethyl)-5,5-dimethylhydantoin]
Settings	LDH release cytotoxicity [%]
0.03162 µM	-1.56
0.1 µM	-1.1
0.3162278 µM	-1.77
1 µM	-1.77
3.16228 µM	-1.55
10 µM	-1.08
31.6228 µM	-0.999
100 µM	0.312
